Assay results published in patent US12648571B2, “Compositions including antimicrobial polymer-peptide conjugates and uses thereof” (University of Puerto Rico, priority 2020, dated 2026).
No end group written: not given here.

What was measured:
[1] = Circular Dichroism (CD) spectroscopy, secondary structure (K2D3); assay type: physicochemical; conditions: 90 μM, TFE/np water 50% v/v, 20° C.
Description: Circular Dichroism spectra were recorded on a Jasco J-1500 CD Spectrometer (Jasco, Inc., Easton, MD). Both peptides (MH5C, MH5C-Cys) were dissolved according to the protocol published by Dennison et al. (2015) with 2,2,2-Trifluoroethanol and np water (TFE/np water mixture; 50% v/v) as co-solvent for this peptide.^26 The final concentration was set to 90 μM and the samples were ultra-centrifuged (29,100 rpm) for 1 hour at 20° C. Subsequently, 400 μL of the supernatant of each peptide was added to a rectangular quartz cell with 1 mm path length to evaluate secondary structures. The wavelength ranged from 250-190 nm and scanning speed was 50 nm/min at 20° C. The data obtained were triplicated and then averaged for each sample. In addition, the thermodynamics and unfolding of peptides was studied with this equipment. This technique was used to observe the secondary structure at wavelength complete spectra as a function of temperature.^27 The temperature range from 20° C. to 90° C. was used.
For the secondary structure estimation, the K2D3 method was utilized as described elsewhere.^40 After obtaining the data, a predictive method that utilizes the information from the database Protein Data Bank (PDB) was employed. With this information, a theoretical prediction of CD, known as DichroCalc was obtained.^41 Then, the method K2D3 was utilized, which can predict secondary structures of peptides and proteins in recorded wavelengths between 200 nm to 240 nm in a non-redundant form. The results of these calculations are the predicted percentages for alpha-helix and beta-strand content.^40 The following equation was employed for this prediction:^42

[2] = system: P. aeruginosa (ATCC 27853); assay type: cell-based, Pseudomonas aeruginosa; conditions: for Minimum Inhibition Concentration (MIC): 24 hours, 1.0×10^8 CFU/mL; for kind of antibacterial effect (growth curves): peptides: after 12 hours of growth; for bacterial growth (growth curves): up to 24 hours, 37° C.
From the text: (§1) To determine the antimicrobial activity of the peptides against the pathogenic bacteria P. aeruginosa (ATCC 27853)22 and E. coli (ATCC 25922)23, the following materials were used: Costar 96-well plates Flat Bottom (Sterile Low Evaporation Lid, Corning, USA.), Calgary Biofilm Device (Innovotech Inc.), Glycerol 100% purity. The nutrient agar and broth used were BBL TSA II Trypticase Soy Agar (TSA) and BBL Trypticase Soy Broth (TSB) and were purchased from Becton, Dickinson and Company (BD).
(§2) For these assays, bacteria of interest were thawed, and serial cultured to reach optimal metabolic activity after being defrosted. Optical Density (O.D.) measured with a Genesys 10S UV-VIS Spectrophotometer (O.D.600 nm) was utilized as a measure of bacterial concentration, 1.0×10^8 CFU/mL, as standardized and approved by the Clinical and Laboratory Standards Institute (CLSI).^28 The final concentration of the solvent (vehicle control) was DMSO 10%.
(§3) To create growth curves of the bacteria with and without peptides and to determine the lowest concentration in which these antimicrobial peptides present inhibition of bacterial growth, Minimum Inhibition Concentration (MIC) testing was carried out. After thawing and incubating at 37° C. for 24 hours, and after achieving target O.D., the bacteria were placed on the 96-well plate with lid together with the peptides in various concentrations. Finally, the 96-well plate was taken to the Synergy H1TM Hybrid Multi-Mode Microplate Reader to observe and study the antibacterial effect of the peptides at 37° C. during different time points (0.5 h, 5 h, 12 h, 18 h and 24 h). This process that was used in the same in the evaluation of growth using the MH5C-Cys.

E. coli (ATCC 25922) = assay type: cell-based, Escherichia coli; conditions: for Minimum Inhibition Concentration (MIC): 24 hours, 1.0×10^8 CFU/mL; for kind of antibacterial effect (growth curves): peptides: after 12 hours of growth; for bacterial growth (growth curves): up to 24 hours, 37° C.
From the text: as §1, §2, §3

[3] = Dynamic Light Scattering (DLS) of peptides in solution; assay type: physicochemical; conditions: 1.0 mg/mL in DMSO/np water 20% v/v; for Polydispersity Index (PDI): individual peak method
Description: To determine the stability of the peptide in solution, DLS was conducted for both peptides (MH5C and MH5C-Cys).
AMPs were dissolved in DMSO and nanopure water (DMSO/np water mixture; 20% v/v) with the final concentration at 1.0 mg/mL. First the samples were ultra-centrifuged (29,100 rpm, 1 hour at 20° C.) and later the size average of these biomolecules was studied in solution using a Malvern Zetasizer Nano instrument (4 mW 632.8 nm laser). The individual peak method was used to determine the Polydispersity Index (PdI).

[4] = Zeta potential of peptides; assay type: physicochemical; conditions: sample pH 4.5 (MH5C), 5.9 (MH5C-Cys)
Description: Likewise, zeta potential was conducted in order to determine the overall charge of the modified and unmodified peptide. The zeta potential is highly dependent on the pH as it directly affects the overall charge of the colloidal species. Therefore, it was of interest to know the isoelectric point of the peptides. Using ExPASy ProtParam tool (https://web.expasy.org/protparam/), the theoretical isoelectric points of MH5C and MH5C-Cys, were determined at 3.42 in both cases. In this study the pH of each sample, MH5C was 4.5 and 5.9 for the MH5C-Cys. This is an important condition for the stability of the formulation, as no precipitation will occur under the conditions of the experiment.^36 MH5C had positive zeta potential values (46.6±0.9) compared to the MH5C-Cys (−94±4).

E. coli biofilm [5] = assay type: cell-based, Escherichia coli; conditions: for Minimum Biofilm Eradication Concentration (MBEC): 24 h challenge
Description: (§4) The assay was conducted according to the MBEC protocol as supplied by the manufacturer. Inoculum of each bacterium was prepared in TSB (Tryptic Soy Broth) to a final density of 1.0×10^6. In each well of the 96 well plate, 150 of the inoculated media was transferred. Assay plates were placed in an incubator for 72 h to allow growth and comparison of biofilms was performed for each bacteria strain. After 72 h, the PEG lid of the MBEC assay was transferred to a ‘challenge’ plate. Essentially, serial dilutions of each conjugated (4 kDa and 7 kDa), antimicrobial peptide, and PEG polymers were prepared in TSB to a final volume in the well plates of 200 μL (control and conjugates at 90 μM, 300 μM, and 500 μM). After exposure of the biofilm to the antimicrobial challenge for 24 h, the PEG lid was removed from the challenge plate, and the optical density measurements for each plate were recorded at 650 nm. Clear wells were taken as evidence of biofilm eradication, and MBEC values were assigned as the lowest concentration at which no growth was observed after 24 h of incubation.^31-32

P. aeruginosa biofilm [6] = assay type: cell-based, Pseudomonas aeruginosa; conditions: for Minimum Biofilm Eradication Concentration (MBEC): 24 h challenge
Description: as §4

P. aeruginosa biofilm [7] = assay: MBIC assay (Calgary Biofilm Device); assay type: cell-based, Pseudomonas aeruginosa; conditions: 90 μM and 300 μM
Description: (§5) MBIC (Minimum Biofilm Inhibitory Concentration) was determined by the adherence assay using the Calgary Biofilm Device (Innovotech Inc.). In this assay, the bacteria and compounds (MH5C-Cys and both PEG conjugates) were placed together in the assay plate for 72 h to allow growth. Afterwards, CFU (Colony Forming Unit) and optical density measurements for each well were recorded at 650 nm and clear wells and growth inhibition curves were taken as evidence of biofilm inhibition.

E. coli biofilm [8] = assay: MBIC assay (Calgary Biofilm Device); assay type: cell-based, Escherichia coli; conditions: 90 μM and 300 μM
Description: as §5

Substance	α helix structure [1]	β strand structure [1]	Minimum Inhibition Concentration (MIC) [2]	kind of antibacterial effect (growth curves) [2]	bacterial growth (growth curves) [2]	Minimum Inhibition Concentration (MIC) (E. coli (ATCC 25922))	kind of antibacterial effect (growth curves) (E. coli (ATCC 25922))	bacterial growth (growth curves) (E. coli (ATCC 25922))	average apparent hydrodynamic diameter [3]	Polydispersity Index (PDI) [3]	zeta potential [4]	time during which bacterial growth was not allowed (MBEC assay) (E. coli biofilm [5])	Minimum Biofilm Eradication Concentration (MBEC) (E. coli biofilm [5])	time during which bacterial growth was not allowed (MBEC assay) (P. aeruginosa biofilm [6])	Minimum Biofilm Eradication Concentration (MBEC) (P. aeruginosa biofilm [6])	inhibition of biofilm formation (MBIC assay, CFU) (P. aeruginosa biofilm [7])	inhibition of biofilm formation (MBIC assay, CFU) (E. coli biofilm [8])	kind of effect in MBEC assay (E. coli biofilm [5]; 90 μM and 300 μM, 24 h)	kind of effect in MBEC assay (P. aeruginosa biofilm [6]; 90 μM, 180 μM and 300 μM, 24 h)
ILGPVLGLVSDTLDDVLGIL-OH [MH5C]	95.22%	0.02%	90 µM	bacteriostatic effect	did not allow bacterial growth	90 µM	bacteriostatic effect	did not allow bacterial growth	0.72 ± 0.11 nm·days	0.03	46.6±0.9								
ILGPVLGLVSDTLDDVLGILC-OH [MH5C-Cys]	95.36%	0.02%	90 µM	bacteriostatic effect	did not allow bacterial growth	90 µM	bacteriostatic effect	did not allow bacterial growth	0.52 ± 0.44 nm·days	0.01	−94±4	8 to 10 h	500 µM	8 to 10 h	500 µM	does not possess a significant inhibition	does not possess a significant inhibition		
KRWRIRVRVIRKC [Tet-20, KRWRIRVRVIRKC]			40 µM			15 µM							300 µM		300 µM			bactericidal effect	bactericidal effect
